Measurements taken from the supplement of paper PMC10307832.

Tests used:
Experiment in all cases: relative viability (nuclei count vs DMSO), 5 days (fraction); higher = more cells survive
Adavosertib + Foretinib = compound: C=CCn1c(=O)c2cnc(Nc3ccc(N4CCN(C)CC4)cc3)nc2n1-c1cccc(C(C)(C)O)n1 [Adavosertib] + COc1cc2c(Oc3ccc(NC(=O)C4(C(=O)Nc5ccc(F)cc5)CC4)cc3F)ccnc2cc1OCCCN1CCOCC1 [Foretinib] (partner 0.25 µM)
Procedure, shortened: (§1)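 After 5 days of treatment, lung cancer cells in 1536-well plates were fixed and stained in a single step (final 0.05% Triton X-100, 1% formaldehyde, 1 ug/ml Hoechst) and their nuclei counted on 4× images. Treatment had been applied by pin tool the day after seeding as one drug alone or as a fixed anchor-drug dose with five library-drug doses (not always all listed) in √10 steps. Relative viability is the nuclei count of treated wells divided by that of vehicle wells, and values are medians of duplicate plates.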

Adavosertib + Lapatinib = compound: C=CCn1c(=O)c2cnc(Nc3ccc(N4CCN(C)CC4)cc3)nc2n1-c1cccc(C(C)(C)O)n1 [Adavosertib] + CS(=O)(=O)CCNCc1ccc(-c2ccc3ncnc(Nc4ccc(OCc5cccc(F)c5)c(Cl)c4)c3c2)o1 [Lapatinib] (partner 2 µM)
Procedure, shortened: as §1

Nelarabine + Alpelisib = compound: COc1nc(N)nc2c1ncn2[C@@H]1O[C@H](CO)[C@@H](O)[C@@H]1O [Nelarabine] + Cc1nc(NC(=O)N2CCC[C@H]2C(N)=O)sc1-c1ccnc(C(C)(C)C(F)(F)F)c1 [Alpelisib] (partner 2 µM)
Procedure, shortened: as §1

Nelarabine + Decitabine = compound: COc1nc(N)nc2c1ncn2[C@@H]1O[C@H](CO)[C@@H](O)[C@@H]1O [Nelarabine] + Nc1ncn([C@H]2C[C@H](O)[C@@H](CO)O2)c(=O)n1 [Decitabine] (partner 2 µM)
Procedure, shortened: as §1

## EMC-BAC-2
Adavosertib + Foretinib; first compound 0.01 µM
  relative viability: 1.08
Adavosertib + Foretinib; first compound 0.03162 µM
  relative viability: 1.01
Adavosertib + Foretinib; first compound 0.1 µM
  relative viability: 0.995
Adavosertib + Foretinib; first compound 0.3162 µM
  relative viability: 0.949
Adavosertib + Lapatinib; first compound 0.01 µM
  relative viability: 0.882
Adavosertib + Lapatinib; first compound 0.03162 µM
  relative viability: 0.869
Adavosertib + Lapatinib; first compound 0.1 µM
  relative viability: 0.927
Adavosertib + Lapatinib; first compound 0.3162 µM
  relative viability: 0.978
Nelarabine + Alpelisib; first compound 0.01 µM
  relative viability: 0.794
Nelarabine + Alpelisib; first compound 0.03162 µM
  relative viability: 0.585
Nelarabine + Alpelisib; first compound 0.1 µM
  relative viability: 0.73
Nelarabine + Alpelisib; first compound 0.3162 µM
  relative viability: 0.799
Nelarabine + Alpelisib; first compound 1 µM
  relative viability: 0.815
Nelarabine + Decitabine; first compound 0.01 µM
  relative viability: 0.885
Nelarabine + Decitabine; first compound 0.03162 µM
  relative viability: 1.11
Nelarabine + Decitabine; first compound 0.1 µM
  relative viability: 0.912
Nelarabine + Decitabine; first compound 0.3162 µM
  relative viability: 0.864
Nelarabine + Decitabine; first compound 1 µM
  relative viability: 0.995
